Results reported in ChEMBL document CHEMBL3400086, “Thieno[2,3-b]pyridines as negative allosteric modulators of metabotropic GluR5 receptors: Lead optimization” (Bioorg Med Chem Lett, 2015).

How the values were obtained:
Liver microsome [1] = assay: Intrinsic clearance in human liver microsomes measured per gram of tissue at 2.5 uM; type: ADME
Liver microsome [2] = assay: Intrinsic clearance in Wistar rat liver microsomes measured per gram of tissue at 2.5 uM; type: ADME
[3] = target: T1, Metabotropic glutamate receptor 5 (Rattus norvegicus, UniProt P31424); assay: Displacement of [3H]-M-MPEP from rat cerebrocortical mGluR5 receptor
T1 sequence (P31424 whole entry): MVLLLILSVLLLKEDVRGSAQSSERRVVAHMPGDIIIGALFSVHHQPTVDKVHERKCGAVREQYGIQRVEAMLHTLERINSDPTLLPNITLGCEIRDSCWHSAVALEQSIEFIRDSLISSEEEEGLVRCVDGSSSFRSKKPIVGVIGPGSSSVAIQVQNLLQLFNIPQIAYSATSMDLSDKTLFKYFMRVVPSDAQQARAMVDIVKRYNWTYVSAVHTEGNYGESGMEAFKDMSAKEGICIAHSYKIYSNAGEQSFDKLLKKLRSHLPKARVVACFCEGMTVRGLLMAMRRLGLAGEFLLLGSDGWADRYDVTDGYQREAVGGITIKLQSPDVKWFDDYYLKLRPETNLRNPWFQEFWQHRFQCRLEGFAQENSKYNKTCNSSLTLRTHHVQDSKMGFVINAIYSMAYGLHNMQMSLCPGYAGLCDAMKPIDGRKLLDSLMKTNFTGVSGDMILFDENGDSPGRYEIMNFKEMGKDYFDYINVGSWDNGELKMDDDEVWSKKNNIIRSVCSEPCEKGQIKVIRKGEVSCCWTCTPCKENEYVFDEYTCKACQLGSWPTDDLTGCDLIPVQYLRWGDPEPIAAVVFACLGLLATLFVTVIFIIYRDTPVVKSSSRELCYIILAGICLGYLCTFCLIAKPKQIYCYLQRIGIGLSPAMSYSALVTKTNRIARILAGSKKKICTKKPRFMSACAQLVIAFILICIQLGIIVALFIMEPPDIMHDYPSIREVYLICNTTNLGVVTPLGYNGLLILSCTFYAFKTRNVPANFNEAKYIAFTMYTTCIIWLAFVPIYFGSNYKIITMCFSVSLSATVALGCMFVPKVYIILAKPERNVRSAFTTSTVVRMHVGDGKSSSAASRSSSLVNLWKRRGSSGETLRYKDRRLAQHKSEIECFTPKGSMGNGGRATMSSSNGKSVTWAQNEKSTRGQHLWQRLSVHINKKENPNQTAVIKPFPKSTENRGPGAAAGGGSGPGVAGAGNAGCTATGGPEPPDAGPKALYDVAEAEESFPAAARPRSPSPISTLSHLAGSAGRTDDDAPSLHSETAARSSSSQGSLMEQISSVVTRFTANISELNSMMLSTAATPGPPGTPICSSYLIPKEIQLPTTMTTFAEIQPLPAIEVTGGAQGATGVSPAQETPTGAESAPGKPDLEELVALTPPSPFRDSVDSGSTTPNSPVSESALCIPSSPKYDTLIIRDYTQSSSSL

[4] = target: T1, Metabotropic glutamate receptor 5; assay: Negative allosteric modulation of mGlu5 receptor in primary E17 rat embryo neuron assessed as ca2+ level by fluo-4/AM assay

| CLH (Liver microsome [1]) [mL/min/g] | CLH (Liver microsome [2]) [mL/min/g] | Ki [3] [nM] | IC50 [4] [nM] | SMILES |
| --- | --- | --- | --- | --- |
| 0.6 | 0.7 | 15.2 | 18 | N#Cc1cc(F)cc(S(=O)(=O)c2sc3ncc(N)cc3c2-c2cnccc2F)c1 |
| 2.4 | 3.5 | 1.1 | 1.5 | N#Cc1cc(F)cc(S(=O)(=O)c2sc3ncccc3c2-c2ccccc2F)c1 |
| 3.3 | 17.3 | 3 |  | Cc1ccc(-c2c(S(=O)(=O)c3cccc(C#N)c3)sc3ncccc23)cc1 |
|  |  | 15.9 |  | O=S(=O)(c1cccc(Cl)c1)c1sc2ncccc2c1-c1ccc(Cl)cc1 |
|  |  | 272 |  | O=S(=O)(c1ccc(C(F)(F)F)cc1)c1sc2ncccc2c1-c1ccc(Cl)cc1 |
| 0.6 | 2.5 | 1.8 |  | N#Cc1cccc(S(=O)(=O)c2sc3ncc(N)cc3c2-c2ccccc2F)c1 |
|  |  | 36 |  | O=S(=O)(c1cc(F)cc(F)c1)c1sc2ncccc2c1-c1ccc(Cl)cc1 |
| 1.1 | 1 | 9.3 | 34 | N#Cc1cc(F)cc(S(=O)(=O)c2sc3ncc(N)cc3c2-c2cnccc2Cl)c1 |
|  |  | 66 |  | CC(C)c1ccc(S(=O)(=O)c2sc3ncccc3c2-c2ccc(Cl)cc2)cc1 |
| 0.8 | 1.04 | 2.4 | 6.1 | N#Cc1cc(F)cc(S(=O)(=O)c2sc3ncc(N)cc3c2-c2cc(F)cc(F)c2)c1 |
| 1.9 | 2.8 | 58 |  | Nc1cnc2sc(S(=O)(=O)c3ccc(Cl)cc3)c(-c3ccccc3F)c2c1 |
|  |  | 289 |  | O=S(=O)(c1cccnc1)c1sc2ncccc2c1-c1ccc(Cl)cc1 |
| 1.7 | 1.8 | 37 | 127 | Nc1cnc2sc(S(=O)(=O)c3ccc(Cl)cc3)c(-c3cccc(F)c3)c2c1 |
| 0.04 | 0.9 | 60 | 338 | O=S(=O)(c1ccc(Cl)cc1)c1sc2nc(O)ccc2c1-c1ccc(Cl)cc1 |
| 1.1 | 2.5 | 1.5 | 1.6 | N#Cc1cc(F)cc(S(=O)(=O)c2sc3ncc(N)cc3c2-c2ccccc2F)c1 |
| 1.6 | 0.4 | 9 |  | N#Cc1cccc(S(=O)(=O)c2sc3ncc(N)cc3c2-c2ccc(Cl)cc2)c1 |
| 0.01 | 2.6 | 652 |  | COc1ccc2c(-c3ccc(Cl)cc3)c(S(=O)(=O)c3ccc(Cl)cc3)sc2n1 |
|  |  | 10.7 |  | O=S(=O)(c1ccc(Cl)c(Cl)c1)c1sc2ncccc2c1-c1ccc(Cl)cc1 |
| 3.3 | 11.1 | 27 |  | O=S(=O)(c1ccc(Cl)cc1)c1sc2ncccc2c1-c1ccc(F)cc1F |
| 0.01 | 2.8 | 69 | 363 | O=S(=O)(c1ccc(Cl)cc1)c1sc2ncc(Cl)cc2c1-c1ccc(Cl)cc1 |
| 1.5 | 2.4 | 2.2 | 2.4 | N#Cc1cc(F)cc(S(=O)(=O)c2sc3ncccc3c2-c2cccc(F)c2)c1 |
| 1.3 | 3.8 | 8.8 |  | N#Cc1cccc(S(=O)(=O)c2sc3ncc(N)cc3c2-c2ccc(F)cc2)c1 |
|  |  | 9.3 |  | Cc1cccc(S(=O)(=O)c2sc3ncccc3c2-c2ccc(Cl)cc2)c1 |
| 3.3 | 17.7 | 14.2 | 44 | Cc1cccc(-c2c(S(=O)(=O)c3cccc(C#N)c3)sc3ncccc23)c1 |

| CLH (Liver microsome [1]) [mL/min/g] | CLH (Liver microsome [2]) [mL/min/g] | Ki [3] [nM] | IC50 [4] [nM] | SMILES |
| --- | --- | --- | --- | --- |
| 2.6 | 10.8 | 14.3 | 45 | N#Cc1cccc(S(=O)(=O)c2sc3ncccc3c2-c2cccc(Cl)c2)c1 |
| 1.3 | 1 | 2.2 | 30 | N#Cc1cc(F)cc(S(=O)(=O)c2sc3ncc(N)cc3c2-c2ccc(Cl)cc2)c1 |
| 0.4 | 1.1 | 166 |  | CS(=O)(=O)Nc1cnc2sc(S(=O)(=O)c3ccc(Cl)cc3)c(-c3ccc(Cl)cc3)c2c1 |
|  |  | 54 |  | O=S(=O)(c1cccc(C(F)(F)F)c1)c1sc2ncccc2c1-c1ccc(Cl)cc1 |
|  |  | 24 |  | Cc1cc(C)cc(S(=O)(=O)c2sc3ncccc3c2-c2ccc(Cl)cc2)c1 |
| 2.3 | 4.1 | 38 | 123 | O=S(=O)(c1ccc(Cl)cc1)c1sc2ncccc2c1-c1cccc(F)c1 |
| 1.1 | 3.9 | 85 | 105 | N#Cc1cccc(-c2c(S(=O)(=O)c3cccc(C#N)c3)sc3ncccc23)c1 |
|  |  | 15.6 |  | O=S(=O)(c1ccc(F)cc1)c1sc2ncccc2c1-c1ccc(Cl)cc1 |
| 0.01 | 0.5 | 83 | 374 | Nc1ccc2c(-c3ccc(Cl)cc3)c(S(=O)(=O)c3ccc(Cl)cc3)sc2n1 |
| 2.6 | 10.5 | 61 |  | O=S(=O)(c1ccc(Cl)cc1)c1sc2ncccc2c1-c1cnccc1F |
| 3.4 | 13.6 | 22 | 92 | O=S(=O)(c1ccc(Cl)cc1)c1sc2ncccc2c1-c1ccc(F)cc1 |
| 2.6 | 2 | 8.9 | 11 | N#Cc1cc(F)cc(S(=O)(=O)c2sc3ncccc3c2-c2cccc(Cl)c2)c1 |
| 0.9 | 1.5 |  | 38 | N#Cc1cc(F)cc(S(=O)(=O)c2sc3ncc(N)cc3c2-c2cccc(Cl)c2)c1 |
| 1.4 | 3.4 | 2 | 18 | N#Cc1cc(F)cc(S(=O)(=O)c2sc3ncccc3c2-c2ccc(Cl)cc2)c1 |
| 0.9 | 1 | 2.7 | 9 | N#Cc1cc(F)cc(S(=O)(=O)c2sc3ncc(N)cc3c2-c2ccc(F)c(F)c2)c1 |
|  |  | 6.8 |  | Cc1ccc(S(=O)(=O)c2sc3ncccc3c2-c2ccc(Cl)cc2)cc1Cl |
| 0.3 | 0.5 | 44 | 44 | N#Cc1cc(F)cc(S(=O)(=O)c2sc3ncc(N)cc3c2-c2ccncc2F)c1 |
|  |  | 96 |  | O=S(=O)(c1ccccc1)c1sc2ncccc2c1-c1ccc(Cl)cc1 |
| 1 | 0.7 | 44 |  | N#Cc1cc(F)cc(S(=O)(=O)c2sc3ncc(N)cc3c2-c2ccncc2Cl)c1 |
|  |  | 9.5 |  | COc1cccc(S(=O)(=O)c2sc3ncccc3c2-c2ccc(Cl)cc2)c1 |
| 1 | 1.4 | 8.3 | 48 | N#Cc1cccc(S(=O)(=O)c2sc3nc(F)ccc3c2-c2ccc(Cl)cc2)c1 |
| 3.5 | 2 | 2.8 | 14 | N#Cc1cc(F)cc(S(=O)(=O)c2sc3nc(F)ccc3c2-c2ccc(F)cc2)c1 |
| 3.7 | 4.3 | 13 |  | N#Cc1cc(F)cc(S(=O)(=O)c2sc3ncccc3c2-c2ccoc2)c1 |
| 3.2 | 11.2 | 3.5 |  | N#Cc1cccc(S(=O)(=O)c2sc3ncccc3c2-c2ccccc2Cl)c1 |

| CLH (Liver microsome [1]) [mL/min/g] | CLH (Liver microsome [2]) [mL/min/g] | Ki [3] [nM] | IC50 [4] [nM] | SMILES |
| --- | --- | --- | --- | --- |
|  |  | 105 |  | O=S(=O)(c1ccc(Cl)cc1Cl)c1sc2ncccc2c1-c1ccc(Cl)cc1 |
|  |  | 36 |  | N#Cc1ccc(S(=O)(=O)c2sc3ncccc3c2-c2ccc(Cl)cc2)cc1 |
| 3.8 | 9.5 | 26 |  | CN(C)c1ccnc2sc(S(=O)(=O)c3ccc(Cl)cc3)c(-c3ccc(Cl)cc3)c12 |
| 0.4 | 0.8 | 19 |  | N#Cc1cc(F)cc(S(=O)(=O)c2sc3ncc(N)cc3c2-c2c(F)cncc2F)c1 |
| 0.3 | 1.7 | 124 |  | O=S(=O)(c1ccc(Cl)cc1)c1sc2ncc(F)cc2c1-c1ccc(Cl)cc1 |
| 0.01 | 0.01 | 4.2 |  | N#Cc1cccc(S(=O)(=O)c2sc3ncc(N)cc3c2-c2cccc(F)c2)c1 |
| 0.01 | 0.01 | 14.3 |  | N#Cc1cccc(S(=O)(=O)c2sc3ncc(N)cc3c2-c2cccc(Cl)c2)c1 |
| 1.3 | 2.8 | 37 |  | O=S(=O)(c1ccc(Cl)cc1)c1sc2ncccc2c1-c1cccc(Cl)c1 |
|  |  | 9.1 |  | O=C(Nc1cccc(Cl)c1)O/N=C1\CCCCC1Cc1cccs1 (stereo not given) |
| 2.1 | 9.6 | 4.5 |  | N#Cc1cccc(S(=O)(=O)c2sc3ncccc3c2-c2ccc(F)cc2)c1 |
|  |  | 52 |  | CN(C)c1ccc(S(=O)(=O)c2sc3ncccc3c2-c2ccc(Cl)cc2)cc1 |
|  |  | 3.3 |  | Cc1ccc(S(=O)(=O)c2sc3ncccc3c2-c2ccc(Cl)cc2)cc1C |
|  |  | 43 |  | O=S(=O)(c1cccc(F)c1)c1sc2ncccc2c1-c1ccc(Cl)cc1 |
| 2.9 | 10.1 | 14.8 |  | Nc1ccnc2sc(S(=O)(=O)c3ccc(Cl)cc3)c(-c3ccc(Cl)cc3)c12 |
| 2.5 | 9.7 | 31 |  | O=S(=O)(c1ccc(Cl)cc1)c1sc2ncccc2c1-c1ccc(Cl)c(Cl)c1 |
|  |  | 7.9 |  | COc1ccc(S(=O)(=O)c2sc3ncccc3c2-c2ccc(Cl)cc2)cc1F |
|  |  | 11.8 |  | Cc1ccc(S(=O)(=O)c2sc3ncccc3c2-c2ccc(Cl)cc2)cc1F |
| 3.6 | 12.1 | 214 |  | O=S(=O)(c1ccc(Cl)cc1)c1sc2nccc(F)c2c1-c1ccc(Cl)cc1 |
|  |  | 41 |  | O=S(=O)(c1cc(F)cc(C(F)(F)F)c1)c1sc2ncccc2c1-c1ccc(Cl)cc1 |
| 1.9 | 13.9 | 4.8 |  | N#Cc1cccc(S(=O)(=O)c2sc3ncccc3c2-c2cccc(F)c2)c1 |
| 0.6 | 2.1 | 20 |  | N#Cc1cc(F)cc(S(=O)(=O)c2sc3nc(Cl)ccc3c2-c2ccc(F)cc2)c1 |
| 2.7 | 13.5 | 23 |  | COc1ccc(-c2c(S(=O)(=O)c3cccc(C#N)c3)sc3ncccc23)cc1 |
|  |  | 15.4 |  | Cc1ccc(S(=O)(=O)c2sc3ncccc3c2-c2ccc(Cl)cc2)cc1 |
|  |  | 20 |  | COc1ccc(S(=O)(=O)c2sc3ncccc3c2-c2ccc(Cl)cc2)cc1 |
